Article PMC11327196, “A phase 1 study to assess the absolute bioavailability, mass balance, pharmacokinetics, metabolism, and excretion of [^14C]-mobocertinib, an oral inhibitor of EGFR exon 20 insertion mutations, in healthy participants” (Investigational New Drugs, 2024)

Legend:
[1] = Period 2: mass balance (total radioactivity in urine and feces); type: in vivo, human
Method: (§1) After a washout of 8–9 days, participants returned to the clinic for Day − 1 of Period 2. On Day 1 of Period 2, after a fast of ≥ 10 h, participants received a single nominal dose of 160 mg (~ 100 µCi; whole body effective dose of 5.3 mrem for a 70-kg human) [^14C]-mobocertinib as a 70 mL oral solution. The actual doses administered ranged from 161 to 163 mg (92.4 to 93.9 µCi). Participants stayed in the clinic from Day − 1 until a discharge criterion (≥ 80% of the total administered radioactive dose was recovered in urine and feces or excretion of radioactivity in urine and feces combined had declined to ≤ 1% of the total administered dose per day for ≥ 2 consecutive intervals) was met, or up to 10 days postdose. To measure the total radioactivity and concentrations of mobocertinib, AP32960, and AP32914 in whole blood and plasma, 4 blood samples were collected predose, and at 0.5, 1, 2, 3, 4, 5, 6, 8, 12, 24, 36, 48, 72, 96, 120, 144, 168, 192, 216, and 240 h postdose; a fifth blood sample was collected for plasma metabolite profiling at predose and 1, 2, 4, 6, 12, 24, 48, 72, 96, 120, and 168 h postdose. Feces and urine were collected predose (feces within 48 h and urine within 24 h prior to dosing), 0–24 h (urine from 0–12 and 12–24 h), and then at 24-hour intervals up to 240 h postdose or until a discharge criterion was met. […] These 2 participants continued with at-home fecal sample collections. One participant provided fecal samples until Day 13 (264–288 h interval) and one participant provided fecal samples until Day 19 (408–432 h interval), after which they met a discharge criterion.
(§2) Plasma, whole blood, and urine samples were assayed for mobocertinib, AP32960, and AP32914 concentrations using liquid chromatography-tandem mass spectrometry (Q2 Solutions, Ithaca, New York, USA). The analytical range for each analyte was 0.250 to 500 ng/mL in whole blood and plasma, and 1.00 to 1000 ng/mL in urine. […] Urine and fecal samples were assayed for total radioactivity following the IV dose of [^14C]-mobocertinib in Period 1, and whole blood, plasma, urine, and fecal samples were assayed for total radioactivity following the oral dose of [^14C]-mobocertinib in Period 2 using liquid scintillation counting (LSC; Celerion, Lincoln, Nebraska, USA; LLOQs: Period 1 urine: 0.115–0.118 ng eq/g, feces: 0.720–0.759 ng eq/g; Period 2 whole blood: 87.3–112 ng eq/g, plasma: 116–132 ng eq/mL, urine: 37.8–46.8 ng eq/g, feces: 110–336 ng eq/g across participants). Urine and fecal samples collected in Period 1 that had total radioactivity concentration equivalents below the LLOQ of the Celerion LSC assay were sent to Pharmaron for measurement by AMS (LLOQ: urine: 0.0000253–0.00111 ng eq/g; feces: 0.000404–0.0278 ng eq/g across participants). The LSC and AMS assays were not cross-validated.
PK parameters for analytes in urine and feces were calculated using SAS Version 9.4 and included the cumulative amounts and percentages of the administered radioactive dose excreted as [^14C]-mobocertinib, [^14C]-AP32960, and [^14C]-AP32914 in urine and feces following IV dosing in Period 1 and oral dosing in Period 2. Renal clearance (CLR) was calculated as the cumulative amount of radiolabeled mobocertinib, AP32960, or AP32914 recovered in urine divided by the plasma AUC to the time of the last common time point at which an analyte was quantifiable in both urine and plasma for individual participants (AUCCLR) following oral dosing of [^14C]-mobocertinib in Period 2. Mass balance was defined as the percentage of total radioactivity recovered in urine and feces combined relative to the total amount of the administered radioactive dose.

[2] = Period 2: urine PK (renal clearance, urinary recovery); type: in vivo, human
Method: as §1, with “One participant provided fecal samples until Day 13 (264–288 h interval) and one participant provided fecal samples until Day 19 (408–432 h interval), after which they met a discharge criterion.” left out
as §2, with “USA).” for “USA). The analytical range for each analyte was 0.250 to 500 ng/mL in whole blood and plasma, and 1.00 to 1000 ng/mL in urine.”, “The LSC and AMS assays were not cross-validated.” left out
PK parameters for analytes in urine and feces were calculated using SAS Version 9.4 and included the cumulative amounts and percentages of the administered radioactive dose excreted as [^14C]-mobocertinib, [^14C]-AP32960, and [^14C]-AP32914 in urine and feces following IV dosing in Period 1 and oral dosing in Period 2. […]

[3] = Period 2, oral solution 160 mg (~100 µCi) [14C]-mobocertinib, geometric mean

Compound | administered radioactive dose unaccounted for ([1]; male, human, in vivo, po) | cumulative percentage of the radioactive dose recovered in feces (total radioactivity) ([1]; male, human, in vivo, po) [%] | cumulative percentage of the radioactive dose recovered in urine (total radioactivity) ([1]; male, human, in vivo, po) [%] | radioactive dose recovered in urine as mobocertinib, AP32960 and AP32914 combined ([2]; male, human, in vivo, po) [%] | CL renal ([2]; male, human, in vivo, po, 160 mg) [mL/min] | cumulative percentage of the radioactive dose recovered in feces (total radioactivity) [1, 3] [%] | cumulative percentage of the radioactive dose recovered in urine (total radioactivity) [1, 3] [%] | cumulative percentage of the radioactive dose recovered in urine and feces combined ([1]; Period 2, oral solution 160 mg (~100 µCi) [14C]-mobocertinib, geometric mean, 432-hour collection interval) [%] | radioactive dose recovered in urine as mobocertinib, AP32960 and AP32914 combined ([2]; Period 2, oral solution 160 mg [14C]-mobocertinib) [%] | total oral radioactive dose recovered in urine as analyte ([2]; Period 2, oral solution 160 mg [14C]-mobocertinib, geometric mean) [%]
C=CC(=O)Nc1cc(Nc2ncc(C(=O)OC(C)C)c(-c3cn(C)c4ccccc34)n2)c(OC)cc1N(C)CCN(C)C [Mobocertinib] | Approximately 20% | 76.0 | 3.57 | 1.13 | 11 | – | – | – | – | –
[^14C]-mobocertinib | – | – | – | – | – | 76.0 | 3.57 | 79.6 | 1.13 | 0.39
